ChEMBL document CHEMBL3991601, “The target landscape of clinical kinase drugs” (Science, 2017)
Each block holds one molecule with its values, some of them ahead of it. Active and inactive are the calls of the source. Unless noted, the rule behind the calls is not given here.

What was measured:
[1] = target: Activin receptor type-1-like (Homo sapiens, UniProt P37023)
[2] = target: Dual specificity tyrosine-phosphorylation-regulated kinase 1B (Homo sapiens, UniProt Q9Y463)
[3] = target: 5'-AMP-activated protein kinase subunit gamma-1 (Homo sapiens, UniProt P54619)
5'-AMP-activated protein kinase subunit gamma-1, sequence (P54619 whole entry): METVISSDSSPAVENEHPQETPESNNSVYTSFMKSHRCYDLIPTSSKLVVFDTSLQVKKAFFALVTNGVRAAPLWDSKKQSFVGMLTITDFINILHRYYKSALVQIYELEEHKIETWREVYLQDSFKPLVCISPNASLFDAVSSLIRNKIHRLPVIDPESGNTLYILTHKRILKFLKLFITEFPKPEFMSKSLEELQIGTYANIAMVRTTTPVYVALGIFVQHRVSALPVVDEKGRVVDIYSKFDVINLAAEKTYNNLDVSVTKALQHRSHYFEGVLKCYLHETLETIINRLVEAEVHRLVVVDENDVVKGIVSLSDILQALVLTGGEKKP

[4] = target: 5'-AMP-activated protein kinase subunit gamma-2 (Homo sapiens, UniProt Q9UGJ0)
5'-AMP-activated protein kinase subunit gamma-2, sequence (Q9UGJ0 whole entry): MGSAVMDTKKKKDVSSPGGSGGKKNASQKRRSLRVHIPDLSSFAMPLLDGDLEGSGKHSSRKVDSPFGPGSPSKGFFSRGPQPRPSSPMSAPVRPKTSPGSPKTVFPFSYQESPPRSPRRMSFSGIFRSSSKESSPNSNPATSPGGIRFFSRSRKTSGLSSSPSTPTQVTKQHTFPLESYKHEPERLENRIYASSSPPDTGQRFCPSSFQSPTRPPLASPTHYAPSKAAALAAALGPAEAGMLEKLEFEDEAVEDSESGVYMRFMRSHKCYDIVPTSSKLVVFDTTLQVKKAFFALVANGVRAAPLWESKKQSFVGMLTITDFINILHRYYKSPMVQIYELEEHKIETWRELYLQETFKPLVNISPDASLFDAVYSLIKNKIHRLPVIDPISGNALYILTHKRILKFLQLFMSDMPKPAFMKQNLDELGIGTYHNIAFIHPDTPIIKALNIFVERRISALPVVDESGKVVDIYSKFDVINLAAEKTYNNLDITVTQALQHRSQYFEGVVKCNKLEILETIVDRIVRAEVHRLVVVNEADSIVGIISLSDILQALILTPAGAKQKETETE

[5] = target: T1, General transcription and DNA repair factor IIH helicase subunit XPD (Homo sapiens, UniProt P18074)
T1 sequence (P18074 whole entry): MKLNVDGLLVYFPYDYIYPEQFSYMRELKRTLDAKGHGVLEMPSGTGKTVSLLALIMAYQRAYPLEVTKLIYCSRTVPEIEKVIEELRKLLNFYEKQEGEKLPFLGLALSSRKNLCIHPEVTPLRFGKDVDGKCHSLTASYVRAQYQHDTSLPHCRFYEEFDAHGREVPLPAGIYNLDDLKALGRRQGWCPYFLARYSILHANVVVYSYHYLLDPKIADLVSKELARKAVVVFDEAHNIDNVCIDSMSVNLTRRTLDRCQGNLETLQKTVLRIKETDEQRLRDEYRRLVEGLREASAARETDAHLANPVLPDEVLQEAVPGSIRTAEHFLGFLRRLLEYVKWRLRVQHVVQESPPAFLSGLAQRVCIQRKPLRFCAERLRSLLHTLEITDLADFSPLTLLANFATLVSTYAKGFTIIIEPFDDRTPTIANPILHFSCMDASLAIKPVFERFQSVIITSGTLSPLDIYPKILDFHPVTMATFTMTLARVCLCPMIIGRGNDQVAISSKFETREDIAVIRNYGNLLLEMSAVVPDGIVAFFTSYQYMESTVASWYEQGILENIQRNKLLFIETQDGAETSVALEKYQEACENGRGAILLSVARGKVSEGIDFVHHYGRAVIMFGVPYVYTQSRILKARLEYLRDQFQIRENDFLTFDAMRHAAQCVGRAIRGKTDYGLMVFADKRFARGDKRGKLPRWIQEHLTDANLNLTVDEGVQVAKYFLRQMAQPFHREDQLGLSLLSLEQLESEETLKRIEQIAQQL

[6] = target: T2, Uncharacterized protein FLJ45252 (Homo sapiens, UniProt Q6ZSR9)
T2 sequence (Q6ZSR9 whole entry): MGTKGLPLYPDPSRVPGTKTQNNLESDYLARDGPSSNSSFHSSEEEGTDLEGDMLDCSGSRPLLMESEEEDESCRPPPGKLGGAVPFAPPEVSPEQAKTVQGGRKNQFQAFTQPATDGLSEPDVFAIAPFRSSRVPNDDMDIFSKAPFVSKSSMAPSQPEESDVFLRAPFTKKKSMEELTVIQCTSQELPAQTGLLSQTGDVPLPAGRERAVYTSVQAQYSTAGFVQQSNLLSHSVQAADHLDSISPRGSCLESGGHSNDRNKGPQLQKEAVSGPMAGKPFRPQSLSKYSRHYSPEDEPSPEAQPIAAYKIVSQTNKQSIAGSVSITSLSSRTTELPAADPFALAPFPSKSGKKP

[7] = target: Ras-related C3 botulinum toxin substrate 1 (Homo sapiens, UniProt P63000)
[8] = target: Nucleoside diphosphate kinase B (Homo sapiens, UniProt P22392)
Nucleoside diphosphate kinase B, sequence (P22392 whole entry): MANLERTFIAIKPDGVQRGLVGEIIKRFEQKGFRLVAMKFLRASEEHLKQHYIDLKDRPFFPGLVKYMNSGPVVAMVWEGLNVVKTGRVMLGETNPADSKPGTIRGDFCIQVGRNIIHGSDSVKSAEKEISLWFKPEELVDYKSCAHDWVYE

[9] = target: Putative nucleoside diphosphate kinase (Homo sapiens, UniProt O60361)
Putative nucleoside diphosphate kinase, sequence (O60361 whole entry): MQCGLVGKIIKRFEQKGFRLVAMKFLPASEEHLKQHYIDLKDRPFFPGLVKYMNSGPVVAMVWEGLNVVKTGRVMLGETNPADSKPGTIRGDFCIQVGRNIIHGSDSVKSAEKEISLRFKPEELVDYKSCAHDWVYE

Dual specificity tyrosine-phosphorylation-regulated kinase 1B, sequence (Q9Y463 whole entry): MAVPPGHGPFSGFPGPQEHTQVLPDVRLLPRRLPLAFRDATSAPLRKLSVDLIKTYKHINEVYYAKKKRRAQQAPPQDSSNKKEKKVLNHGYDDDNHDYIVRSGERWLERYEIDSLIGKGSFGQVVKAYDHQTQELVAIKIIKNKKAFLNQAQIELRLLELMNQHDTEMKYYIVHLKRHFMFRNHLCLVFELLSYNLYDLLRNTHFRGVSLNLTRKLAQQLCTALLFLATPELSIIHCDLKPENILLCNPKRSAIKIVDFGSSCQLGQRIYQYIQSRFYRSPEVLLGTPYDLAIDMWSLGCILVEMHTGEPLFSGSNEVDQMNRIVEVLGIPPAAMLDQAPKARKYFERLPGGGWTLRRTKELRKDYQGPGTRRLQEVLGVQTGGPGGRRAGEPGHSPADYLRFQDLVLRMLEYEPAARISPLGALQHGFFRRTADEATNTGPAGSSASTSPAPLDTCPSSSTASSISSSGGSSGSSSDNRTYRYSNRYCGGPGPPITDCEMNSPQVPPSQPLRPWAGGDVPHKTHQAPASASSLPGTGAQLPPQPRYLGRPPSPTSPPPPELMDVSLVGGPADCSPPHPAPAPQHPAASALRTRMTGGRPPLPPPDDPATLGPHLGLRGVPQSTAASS
Activin receptor type-1-like, sequence (P37023 whole entry): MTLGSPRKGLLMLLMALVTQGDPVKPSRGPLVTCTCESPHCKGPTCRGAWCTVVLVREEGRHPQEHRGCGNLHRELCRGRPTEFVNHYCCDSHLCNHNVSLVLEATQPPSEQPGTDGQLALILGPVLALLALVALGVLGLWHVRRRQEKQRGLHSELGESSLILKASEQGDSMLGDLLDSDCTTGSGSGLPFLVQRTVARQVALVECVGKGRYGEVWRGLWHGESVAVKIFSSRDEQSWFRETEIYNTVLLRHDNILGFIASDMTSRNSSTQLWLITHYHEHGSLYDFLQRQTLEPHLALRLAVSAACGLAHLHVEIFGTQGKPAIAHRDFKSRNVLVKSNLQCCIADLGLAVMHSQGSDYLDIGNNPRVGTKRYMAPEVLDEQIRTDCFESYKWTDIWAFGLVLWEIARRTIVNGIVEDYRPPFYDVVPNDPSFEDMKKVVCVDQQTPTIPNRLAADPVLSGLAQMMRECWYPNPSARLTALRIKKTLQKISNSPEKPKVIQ

Kd [1]: > 30 µM (inactive)
SMILES: O=C(NOC[C@H](O)CO)c1ccc(F)c(F)c1Nc1ccc(I)cc1F [MIRDAMETINIB]

Kd [2]: > 30 µM (inactive)
SMILES: COc1cc(Nc2ncc(F)c(Nc3ccc4c(n3)N(COP(=O)(O)O)C(=O)C(C)(C)O4)n2)cc(OC)c1OC [FOSTAMATINIB]

Kd [3]: > 30 µM (inactive)
Kd [4]: > 30 µM (inactive)
Kd [5]: > 30 µM (inactive)
Kd [6]: > 30 µM (inactive)
SMILES: COc1cc2c(Oc3ccc4[nH]c(C)cc4c3F)ncnc2cc1OCCCN1CCCC1 [CEDIRANIB]

Kd [3]: > 30 µM (inactive)
Kd [4]: > 30 µM (inactive)
Kd [5]: > 30 µM (inactive)
Kd [6]: 1.45 µM (active)
SMILES: FC(F)(F)c1ccc(CNc2ccc(Cc3c[nH]c4ncc(Cl)cc34)cn2)cn1 [PEXIDARTINIB]

SMILES: COc1cc(F)c(F)c(Nc2ccc(I)cc2F)c1NS(=O)(=O)C1(C[C@H](O)CO)CC1 [REFAMETINIB]
Kd [7]: > 30 µM (inactive)

Kd [2]: > 30 µM (inactive)
SMILES: CCc1cc2c(cc1N1CCC(N3CCOCC3)CC1)C(C)(C)c1[nH]c3cc(C#N)ccc3c1C2=O [ALECTINIB]

SMILES: Cc1c(NC(=O)OC[C@@H]2COCCN2)cn2ncnc(Nc3ccc4c(cnn4Cc4cccc(F)c4)c3)c12 [AC-480]
Kd [1]: > 30 µM (inactive)

SMILES: COCCN1CCN(Cc2ccc(-c3n[nH]c4c3C(=O)c3c(NC(=O)NN5CCOCC5)cccc3-4)cc2)CC1 [RGB-286638]
Kd [2]: > 30 µM (inactive)

SMILES: C[C@]1(O)C[C@@H](c2nc(-c3ccc4ccc(-c5ccccc5)nc4c3)c3c(N)nccn32)C1 [LINSITINIB]
Kd [1]: > 30 µM (inactive)

Kd [2]: > 30 µM (inactive)
SMILES: C#Cc1cccc(Nc2ncnc3cc4c(cc23)OCCOCCOCCO4)c1 [ICOTINIB]

SMILES: O=S(=O)(c1cccc2cnccc12)N1CCCNCC1 [FASUDIL]
Kd [7]: > 30 µM (inactive)

SMILES: Cc1c(Cn2c(C)nc3c(C(=O)O)cc(N4CCOCC4)cc32)cccc1C(F)(F)F [GSK-2636771]
Kd [7]: > 30 µM (inactive)

SMILES: CN(c1ncccc1CNc1nc(Nc2ccc3c(c2)CC(=O)N3)ncc1C(F)(F)F)S(C)(=O)=O [PF-00562271]
Kd [8]: > 30 µM (inactive)
Kd [9]: 0.862 µM

Kd [1]: > 30 µM (inactive)
Kd [2]: > 30 µM (inactive)
SMILES: COc1ccc2c(OCc3nnc4ccc(-c5ccccc5)nn34)ccnc2c1 [AMG-208]

Kd [1]: > 30 µM (inactive)
Kd [2]: > 30 µM (inactive)
SMILES: CNC(=O)c1cccc(-c2ccc3c(N4CCOC[C@@H]4C)nc(N4CCOC[C@@H]4C)nc3n2)c1 [VISTUSERTIB]

SMILES: NC[C@@](O)(c1ccc(Cl)cc1)c1ccc(-c2cn[nH]c2)cc1 [AT-13148]
Kd [7]: > 30 µM (inactive)

Kd [2]: > 30 µM (inactive)
SMILES: COc1cc2nccc(Oc3ccc(NC(=O)C4(C(=O)Nc5ccc(F)cc5)CC4)cc3)c2cc1OC [CABOZANTINIB]

Kd [8]: > 30 µM (inactive)
SMILES: Cn1c(=O)c(F)c(Nc2ccc(I)cc2F)c2c(=O)n(C[C@@H](O)CO)cnc21 [TAK-733]

SMILES: CCc1nc(C(N)=O)c(Nc2ccc(N3CCC(N4CCN(C)CC4)CC3)c(OC)c2)nc1NC1CCOCC1 [GILTERITINIB]
Kd [7]: > 30 µM (inactive)

Kd [2]: > 30 µM (inactive)
SMILES: O[C@H]1CC[C@H](Nc2ncc3nc(Nc4c(F)cc(F)cc4F)n([C@H]4CCOC4)c3n2)CC1 [TANZISERTIB]

Kd [3]: > 30 µM (inactive)
Kd [5]: > 30 µM (inactive)
Kd [6]: > 30 µM (inactive)
SMILES: CCOc1ccn(-c2ccc(F)cc2)c(=O)c1C(=O)Nc1ccc(Oc2ccnc(N)c2Cl)c(F)c1 [BMS-777607]

SMILES: C=CC(=O)Nc1cc(Nc2nccc(-c3cn(C)c4ccccc34)n2)c(OC)cc1N(C)CCN(C)C [OSIMERTINIB]
Kd [3]: > 30 µM (inactive)
Kd [4]: > 30 µM (inactive)
Kd [8]: > 30 µM (inactive)
Kd [5]: > 30 µM (inactive)
Kd [6]: > 30 µM (inactive)
Kd [9]: > 30 µM (inactive)

Kd [2]: > 30 µM (inactive)
SMILES: Cc1cc(-c2cc(OC(=O)c3ccccc3)ccc2Cl)cc2nnc(Nc3ccc(OCCN4CCCC4)cc3)nc12 [TG100-801]

SMILES: CNC(=O)c1ccc(Nc2ncc(C(F)(F)F)c(NCc3nccnc3N(C)S(C)(=O)=O)n2)cc1 [DEFACTINIB]
Kd [2]: > 30 µM (inactive)

SMILES: CN1CCN(c2nc(C3=C(c4c[nH]c5ccccc45)C(=O)NC3=O)c3ccccc3n2)CC1 [SOTRASTAURIN]
Kd [7]: > 30 µM (inactive)

Kd [8]: > 30 µM (inactive)
Kd [9]: > 30 µM (inactive)
SMILES: NC(=O)c1ccc(N(C(N)=O)c2c(F)cccc2F)nc1-c1ccc(F)cc1F [VX-702]
